Assay results reported in patent publication US20080221086A1, “Novel Inhibitors of Glutaminyl Cyclase” (PROBIODRUG AG, priority 2006, published 2008).
Where two headings read alike, the source gives them in different places.

Molecular target: hQC (Homo sapiens, UniProt Q16769)
Experiment: Fluorometric assay of glutaminyl cyclase (QC) inhibition, H-Gln-βNA or H-Gln-AMC substrate
Assay type: biochemical
How it was run: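 Fluorometric coupled assays at 30° C in Tris/HCl pH 8.0 with EDTA and pyroglutamyl aminopeptidase used either 0.2 mM H-Gln-βNA (320/410 nm) or H-Gln-AMC (380/460 nm), started by QC. Screening used 4 mM inhibitor at substrate 1 KM. Ki came from fitting progress curves to competitive inhibition.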

hQC, sequence (Q16769 29-361): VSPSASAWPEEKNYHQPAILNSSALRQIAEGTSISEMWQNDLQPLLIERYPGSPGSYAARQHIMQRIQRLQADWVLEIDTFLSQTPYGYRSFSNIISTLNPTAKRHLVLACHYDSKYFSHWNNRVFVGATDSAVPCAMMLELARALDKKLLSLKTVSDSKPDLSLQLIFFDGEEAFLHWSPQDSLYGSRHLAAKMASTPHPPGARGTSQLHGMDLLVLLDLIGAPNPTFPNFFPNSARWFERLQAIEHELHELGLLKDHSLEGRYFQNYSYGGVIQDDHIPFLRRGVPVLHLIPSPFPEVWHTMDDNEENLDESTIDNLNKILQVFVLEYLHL

Structure (SMILES)	IC50 (read-out: IC50)	IC50 (compound from preparative synthesis, purified by chromatography, fluorescent assay, read-out: IC50 hQC)
Cc1nc[nH]c1C1/C(=N/C2CCCCC2O)NC(=O)N1c1ccc2[nH]cnc2c1 (stereo not shown) [Compound 142, 3-(1H-Benzoimidazol-5-yl)-5-2-hydroxy-cyclohexylimino-5′-methyl-1,3,4,5-tetrahydro-3′H-4,4′biimidazolyl-2-one]	8.5 µM	
O=C(C/N=C1/NC(=O)N(CCCn2ccnc2)C1c1cc(F)cc(F)c1)N1CCc2ccccc2C1 (stereo not shown) [Compound 69, 5-(3,5-Difluoro-phenyl)-4-2-(3,4-dihydro-1H-isoquinolin-2-yl)-2-oxo-ethylimino-1-(3-imidazol-1-yl-propyl)-imidazolidin-2-one]	4.9 µM	
O=C1N/C(=N\Cc2ccc(Cl)cc2)C(c2ccccc2F)N1CCCn1ccnc1 (stereo not shown) [Compound 23]	4 µM	
O=C1N/C(=N\C2CCCCC2O)C(c2ccc3[nH]ccc3c2)N1c1ccc2[nH]cnc2c1 (stereo not shown) [Compound 122, 1-(1H-Benzoimidazol-5-yl)-4-2-hydroxy-cyclohexylimino-5-(1H-indol-5-yl)-imidazolidin-2-one]	0.4 µM	
S=C1N/C(=N/Cc2ccccc2)C(c2ccc(Br)cc2)N1c1ccc2[nH]cnc2c1 (stereo not shown) [Compound 133, 1-(1H-Benzoimidazol-5-yl)-4-benzylimino-5-(4-bromo-phenyl)-imidazolidine-2-thione]	5.8 µM	
O=C1N/C(=N\C2CCCCCC2)C(c2cc(Br)cc(Br)c2)N1c1ccc2nc[nH]c2c1 (stereo not shown) [Compound 301, 1-(3H-Benzoimidazol-5-yl)-4-cycloheptylimino-5-(3,5-dibromo-phenyl)-imidazolidin-2-one]	0.004 µM	
O=C(C/N=C1\NC(=O)N(c2ccc3[nH]cnc3c2)C1c1ccccc1Cl)N1CCSCC1 (stereo not shown) [Compound 135, 1-(1H-Benzoimidazol-5-yl)-5-(2-chloro-phenyl)-4-2-oxo-2-thiomorpholin-4-yl-ethylimino-imidazolidin-2-one]	5.8 µM	
O=C1N/C(=N\c2ccc(Oc3ccccc3)cc2)C(C2CCC=CO2)N1CCCn1ccnc1 (stereo not shown) [Compound 100, 5-(3,4-Dihydro-2H-pyran-2-yl)-1-(3-imidazol-1-yl-propyl)-4-4-phenoxy-phenylimino-imidazolidin-2-one]	4.9 µM	
C/N=C1/NC(=O)N(c2ccc3[nH]cnc3c2)C1c1ccc2c(c1)OCO2 (stereo not shown) [Compound 195, 5-Benzo1,3dioxol-5-yl-1-(1H-benzoimidazol-5-yl)-4-methylimino-imidazolidin-2-one]	1.3 µM	
O=C1N/C(=N\C2CCCCC2)C(c2cccc(F)c2F)N1CCCn1ccnc1 (stereo not shown) [Compound 3]	6.8 µM	
O=C1N/C(=N/CCCc2ccccc2)C(c2cc3ccccc3s2)N1c1ccc2[nH]cnc2c1 (stereo not shown) [Compound 172, 5-Benzobthiophen-2-yl-1-(1H-Benzoimidazol-5-yl)-4-3-phenyl-propylimino-imidazolidin-2-one]	1.3 µM	
CN(C)c1ccc(C2/C(=N\Cn3nnc4ccccc43)NC(=O)N2c2ccc3[nH]cnc3c2)cc1 (stereo not shown) [Compound 322, 1-(1H-Benzoimidazol-5-yl)-4-benzotriazol-1-ylmethylimino-5-(4-dimethylamino-phenyl)-imidazolidin-2-one]	1.3 µM	
O=C1N/C(=N\C2CCCC2)C(c2ccc(N3CCCC3)cc2)N1c1ccc2[nH]cnc2c1 (stereo not shown) [Compound 129, 1-(1H-Benzoimidazol-5-yl)-4-cyclopentylimino-5-(4-pyrrolidin-1-yl-phenyl)-imidazolidin-2-one]	0.004 µM	
O=C1N/C(=N/CCCc2ccccc2)C(c2ccc3[nH]ccc3c2)N1c1ccc2[nH]cnc2c1 (stereo not shown) [Compound 224, 1-(1H-Benzoimidazol-5-yl)-5-(1H-indol-5-yl)-4-3-phenyl-propylimino-imidazolidin-2-one]	0.004 µM	
O=C1N/C(=N/CCN2CCOCC2)C(c2cccc(Br)c2)N1c1ccc2nc[nH]c2c1 (stereo not shown) [Compound 341, 1-(3H-Benzoimidazol-5-yl)-5-(3-bromo-phenyl)-4-2-morpholin-4-yl-ethylimino-imidazolidin-2-one]	1.3 µM	
S=C1N/C(=N/CCCc2ccccc2)C(c2ccc3[nH]ccc3c2)N1c1ccc2[nH]cnc2c1 (stereo not shown) [Compound 284, 1-(1H-Benzoimidazol-5-yl)-5-(1H-indol-5-yl)-4-3-phenyl-propylimino-imidazolidine-2-thione]	1.3 µM	
O=C1N/C(=N\C(c2ccccc2)c2ccccc2)C(c2cc(F)cc(F)c2)N1CCCn1ccnc1 (stereo not shown) [Compound 84, 4-Benzhydrylimino-5-(3,5-difluoro-phenyl)-1-(3-imidazol-1-yl-propyl)-imidazolidin-2-one]	3.1 µM	
CC1=CC(C)C(C2/C(=N/C(C)(C)CC(C)(C)C)NC(=S)N2c2ccc3nc[nH]c3c2)CC1 (stereo not shown) [Compound 200, 1-(3H-Benzoimidazol-5-yl)-5-(2,4-dimethyl-cyclohex-3-enyl)-4-1,1,3,3-tetramethyl-butylimino-imidazolidine-2-thione]	5.8 µM	
O=C1N/C(=N\C2CCCCC2)C(c2c(F)ccc(Cl)c2F)N1c1ccc2[nH]cnc2c1 (stereo not shown) [Compound 220, 1-(1H-Benzoimidazol-5-yl)-5-(3-chloro-2,6-difluoro-phenyl)-4-(cyclohexylimino)-imidazolidin-2-one]	0.004 µM	0.0984 µM
O=C(C/N=C1/NC(=O)N(c2ccc3nc[nH]c3c2)C1c1cc2c(cc1Br)OCO2)N1CCSCC1 (stereo not shown) [Compound 201, 1-(3H-Benzoimidazol-5-yl)-5-(6-bromo-benzo1,3dioxol-5-yl)-4-2-oxo-2-thiomorpholin-4-yl-ethylimino-imidazolidin-2-one]	4 µM	
O=C1CCCN1CCC/N=C1\NC(=S)N(c2ccc3[nH]cnc3c2)C1c1ccc(Br)cc1 (stereo not shown) [Compound 147, 1-{3-1-(3H-Benzoimidazol-5-yl)-5-(4-bromo-phenyl)-2-thioxo-imidazolidin-(4Z)-ylideneamino-propyl}-pyrrolidin-2-one]	5.8 µM	
C/N=C1/NC(=O)N(c2ccc3[nH]cnc3c2)C1c1ccc(N2CCCC2)cc1 (stereo not shown) [Compound 269, 1-(1H-Benzoimidazol-5-yl)-4-methylimino-5-(4-pyrrolidin-1-yl-phenyl)-imidazolidin-2-one]	3.1 µM	
O=C(C/N=C1\NC(=O)N(c2ccc3nc[nH]c3c2)C1c1c(F)ccc(Cl)c1F)N1CCCCC1 (stereo not shown) [Compound 250, 1-(3H-Benzoimidazol-5-yl)-5-(3-chloro-2,6-difluoro-phenyl)-4-2-oxo-2-piperidin-1-yl-ethylimino-imidazolidin-2-one]	4.9 µM	
O=C1N/C(=N/Cn2nnc3ccccc32)C(c2ccc3[nH]ccc3c2)N1c1ccc2[nH]cnc2c1 (stereo not shown) [Compound 173, 1-(1H-Benzoimidazol-5-yl)-4-benzotriazol-1-ylmethylimino-5-(1H-indol-5-yl)-imidazolidin-2-one]	0.004 µM	
O=C1N/C(=N/CCc2cccs2)C(c2cc3c(cc2Br)OCO3)N1c1ccc2nc[nH]c2c1 (stereo not shown) [Compound 314, 1-(3H-Benzoimidazol-5-yl)-5-(6-bromo-benzo1,3dioxol-5-yl)-4-2-thiophen-2-yl-ethylimino-imidazolidin-2-one]	0.004 µM	
Cc1ccc(C2/C(=N/C3CCCCC3O)NC(=O)N2c2ccc3nc[nH]c3c2)c(C)c1 (stereo not shown) [Compound 329, 1-(3H-Benzoimidazol-5-yl)-5-(2,4-dimethyl-phenyl)-4-2-hydroxy-cyclohexylimino-imidazolidin-2-one]	6.7 µM	
O=C1CCCN1CCC/N=C1/NC(=S)N(c2ccc3[nH]cnc3c2)C1c1ccc2c(c1)OCO2 (stereo not shown) [Compound 255, 1-(3-(5-(benzo[d][1,3]dioxol-5-yl)-1-(1H-benzo[d]imidazol-5-yl)-2-thioxoimidazolidin-4-ylideneamino)propyl)pyrrolidin-2-one]	6.7 µM	
